Reference: PubChem BioAssay AID328 (DTP/NCI, 2004)
Where “and” joins values, the source holds several entries; their conditions need not be identical. Identical values can stand only once. Toxic doses and inconclusive results are not listed.

Test system: BDF1 mice, P388 leukemia ip, median survival T/C
Assay: NCI In Vivo Anticancer Drug Screen. Data for tumor model P388 Leukemia (intraperitoneal) in B6D2F1 (BDF1) mice
Details: endpoint: median survival time, higher = longer survival
How it was run: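 In tumour-bearing mice, survival after compound treatment is set against the vehicle group and given as a quotient.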

[1] = dose: 100.0 mg/kg/injection, schedule: Q04DX003 (ip), vehicle: saline with Tween-80
[2] = dose: 200.0 mg/kg/injection, schedule: Q04DX003 (ip), vehicle: saline with Tween-80
[3] = dose: 400.0 mg/kg/injection, schedule: Q04DX003 (ip), vehicle: saline with Tween-80
[4] = dose: 100.0 mg/kg/injection, schedule: Q01DX009 (ip), vehicle: saline with Tween-80
[5] = dose: 200.0 mg/kg/injection, schedule: Q01DX009 (ip), vehicle: saline with Tween-80

CC(C)(C#N)N=NC(C)(C)C#N
T/C (dose: 12.5 mg/kg/injection, schedule: Q01DX009 (ip), vehicle: Klucel (hydroxypropylcellulose) (HPC)): 95 % of control
T/C (dose: 25.0 mg/kg/injection, schedule: Q01DX009 (ip), vehicle: Klucel (hydroxypropylcellulose) (HPC)): 90 % of control
T/C (dose: 50.0 mg/kg/injection, schedule: Q01DX009 (ip), vehicle: Klucel (hydroxypropylcellulose) (HPC)): 90 % of control

COc1cc2c(cc1OC(C)=O)C(=O)CCCC2
T/C [1]: 89 % of control
T/C [2]: 103 % of control
T/C [3]: 99 % of control

COC(=O)C12OCC34C(CC(C(C)=O)C(C)(CC(=O)O)C3C(O)C1O)OC(=O)C(OC(=O)/C=C(\C)C(C)C)C24 (configuration not stated)
T/C (dose: 0.25 mg/kg/injection, schedule: Q01DX009 (ip), vehicle: saline): 94 % of control
T/C (dose: 0.5 mg/kg/injection, schedule: Q01DX009 (ip), vehicle: saline): 92 % of control
T/C (dose: 2.0 mg/kg/injection, schedule: Q01DX009 (ip), vehicle: saline): 92 % of control
T/C (dose: 4.0 mg/kg/injection, schedule: Q01DX009 (ip), vehicle: saline): 90 % of control

C[n+]1c(-c2cccc3ccccc23)c2cc([N+](=O)[O-])ccc2c2ccccc21
T/C (dose: 1.0 mg/kg/injection, schedule: Q04DX003 (ip), vehicle: water): 113 % of control
T/C (dose: 2.0 mg/kg/injection, schedule: Q04DX003 (ip), vehicle: water): 104 % of control
T/C (dose: 4.0 mg/kg/injection, schedule: Q01DX009 (ip), vehicle: water): 118 % of control
T/C (dose: 4.0 mg/kg/injection, schedule: Q04DX003 (ip), vehicle: water): 115 % of control
T/C (dose: 8.0 mg/kg/injection, schedule: Q04DX003 (ip), vehicle: water): 97 % of control and 108 % of control
T/C (dose: 16.0 mg/kg/injection, schedule: Q04DX003 (ip), vehicle: water): 109 % of control
T/C (dose: 32.0 mg/kg/injection, schedule: Q01DX009 (ip), vehicle: water): 109 % of control
T/C (dose: 32.0 mg/kg/injection, schedule: Q04DX003 (ip), vehicle: water): 106 % of control

COc1cccc(Nc2sc(C(=O)c3cc4cc(Cl)ccc4o3)c(N)c2C#N)c1
T/C (dose: 50.0 mg/kg/injection, schedule: Q01DX009 (ip), vehicle: saline with Tween-80): 109 % of control
T/C [4]: 100 % of control
T/C [5]: 115 % of control

CCCCCCCCCCCCCCCCNC(C)c1ccccc1 (configuration not stated)
T/C (dose: 12.5 mg/kg/injection, schedule: Q04DX003 (ip), vehicle: saline with Tween-80): 101 % of control
T/C (dose: 25.0 mg/kg/injection, schedule: Q04DX003 (ip), vehicle: saline with Tween-80): 106 % of control

CC1(c2cccc(N)c2)OCCO1
T/C [4]: 100 % of control
T/C [1]: 90 % of control
T/C [5]: 95 % of control
T/C [2]: 109 % of control
T/C (dose: 400.0 mg/kg/injection, schedule: Q01DX009 (ip), vehicle: saline with Tween-80): 90 % of control
T/C [3]: 109 % of control

CC(N)C(=O)NCC(=O)NCC(=O)O (configuration not stated)
T/C (dose: 100.0 mg/kg/injection, schedule: Q01DX009 (ip), vehicle: saline): 95 % of control
T/C (dose: 100.0 mg/kg/injection, schedule: Q04DX003 (ip), vehicle: saline): 104 % of control
T/C (dose: 200.0 mg/kg/injection, schedule: Q01DX009 (ip), vehicle: saline): 104 % of control
T/C (dose: 200.0 mg/kg/injection, schedule: Q04DX003 (ip), vehicle: saline): 95 % of control
T/C (dose: 400.0 mg/kg/injection, schedule: Q01DX009 (ip), vehicle: saline): 100 % of control
T/C (dose: 400.0 mg/kg/injection, schedule: Q04DX003 (ip), vehicle: saline): 95 % of control

COc1ccc2c(C(=O)CCC(=O)O)cccc2c1
T/C (dose: 100.0 mg/kg/injection, schedule: Q01DX001 (ip), vehicle: saline): 100 % of control
T/C (dose: 200.0 mg/kg/injection, schedule: Q01DX001 (ip), vehicle: saline): 100 % of control
T/C (dose: 400.0 mg/kg/injection, schedule: Q01DX001 (ip), vehicle: saline): 100 % of control

N=C(N)SCc1c2ccccc2c(CSC(=N)N)c2ccccc12
T/C (dose: 2.5 mg/kg/injection, schedule: Q01DX010 (ip), vehicle: saline): 183 % of control
T/C (dose: 5.0 mg/kg/injection, schedule: Q01DX010 (ip), vehicle: saline): 220 % of control
T/C (dose: 10.0 mg/kg/injection, schedule: Q01DX010 (ip), vehicle: saline): 235 % of control and 195 % of control
T/C (dose: 20.0 mg/kg/injection, schedule: Q01DX010 (ip), vehicle: saline): 208 % of control and 215 % of control
